ChEMBL document CHEMBL1201862, “PubChem BioAssay data set” (2004)
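Test compounds were applied to cells in 96-well plates for 48 hours at 5 doses. Here, GI50 denotes the concentration required for 50% inhibition of growth.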 Activity calls are given as the source filed them. No stated cut-off is given here; in the data, active = GI50 up to about 1.1 µM and inactive = higher.

Tests used:
Experiment in all cases: NCI anticancer screen, dose series, 48 h
K562 = system: K562
SK-MEL-28 = system: SK-MEL-28
UACC-62 = system: UACC-62
MCF7 = system: MCF7
T47D = system: T47D
SF-295 = system: SF-295
MOLT-4 = system: MOLT-4
SK-MEL-5 = system: SK-MEL-5
OVCAR-5 = system: OVCAR-5
Hs-578T = system: Hs-578T
OVCAR-8 = system: OVCAR-8
CCRF-CEM = system: CCRF-CEM
BT-549 = system: BT-549
OVCAR-3 = system: OVCAR-3
SF-268 = system: SF-268
HCT-15 = system: HCT-15
MDA-MB-231 = system: MDA-MB-231
UO-31 = system: UO-31
TK-10 = system: TK-10
EKVX = system: EKVX
DU-145 = system: DU-145
SR = system: SR
NCI-H23 = system: NCI-H23
IGROV-1 = system: IGROV-1
SNB-75 = system: SNB-75
RPMI-8226 = system: RPMI-8226
NCI-H522 = system: NCI-H522
Malme-3M = system: Malme-3M
M14 = system: M14
HT-29 = system: HT-29
ACHN = system: ACHN
U-251 = system: U-251
SF-539 = system: SF-539
A498 = system: A498
SW-620 = system: SW-620
MDA-MB-435 = system: MDA-MB-435
OVCAR-4 = system: OVCAR-4
SK-OV-3 = system: SK-OV-3
CAKI-1 = system: CAKI-1
KM12 = system: KM12
A549 = system: A549
NCI-H226 = system: NCI-H226
COLO 205 = system: COLO 205
RXF 393 = system: RXF 393
NCI/ADR-RES = system: NCI/ADR-RES
HOP-92 = system: HOP-92
SK-MEL-2 = system: SK-MEL-2
NCI-H460 = system: NCI-H460
HL-60 = system: HL-60
PC-3 = system: PC-3
LOX IMVI = system: LOX IMVI
HOP-62 = system: HOP-62
786-0 = system: 786-0
MDA-N = system: MDA-N
SN12C = system: SN12C
HCC 2998 = system: HCC 2998
UACC-257 = system: UACC-257
HCT-116 = system: HCT-116
SNB-19 = system: SNB-19

CN1CCN(C(=O)CCNC(=O)Cc2ccc(C(=O)c3ccccc3)cc2)CC1
GI50 (K562): 27.9 µM (inactive) | GI50 (SK-MEL-28): > 100 µM (inactive) | GI50 (UACC-62): > 100 µM (inactive) | GI50 (MCF7): > 100 µM (inactive) | GI50 (T47D): > 100 µM (inactive) | GI50 (SF-295): > 100 µM (inactive) | GI50 (MOLT-4): > 100 µM (inactive) | GI50 (SK-MEL-5): 71.6 µM (inactive) | GI50 (OVCAR-5): > 100 µM (inactive) | GI50 (Hs-578T): > 100 µM (inactive) | GI50 (OVCAR-8): > 100 µM (inactive) | GI50 (CCRF-CEM): 94.8 µM (inactive) | GI50 (BT-549): 64.3 µM (inactive) | GI50 (OVCAR-3): > 100 µM (inactive) | GI50 (SF-268): > 100 µM (inactive) | GI50 (HCT-15): > 100 µM | GI50 (MDA-MB-231): > 100 µM (inactive) | GI50 (UO-31): > 100 µM (inactive) | GI50 (TK-10): > 100 µM (inactive) | GI50 (EKVX): > 100 µM (inactive) | GI50 (DU-145): > 100 µM (inactive) | GI50 (SR): > 100 µM (inactive) | GI50 (NCI-H23): > 100 µM (inactive) | GI50 (IGROV-1): > 100 µM (inactive) | GI50 (SNB-75): > 100 µM (inactive) | GI50 (RPMI-8226): > 100 µM (inactive) | GI50 (NCI-H522): > 100 µM (inactive) | GI50 (Malme-3M): > 100 µM (inactive) | GI50 (M14): > 100 µM (inactive) | GI50 (HT-29): > 100 µM (inactive) | GI50 (ACHN): > 100 µM (inactive) | GI50 (U-251): > 100 µM (inactive) | GI50 (SF-539): > 100 µM (inactive) | GI50 (A498): 83.4 µM (inactive) | GI50 (SW-620): 97.3 µM (inactive) | GI50 (MDA-MB-435): 22.9 µM (inactive) | GI50 (OVCAR-4): > 100 µM (inactive) | GI50 (SK-OV-3): > 100 µM (inactive) | GI50 (CAKI-1): > 100 µM (inactive) | GI50 (KM12): 48.6 µM (inactive) | GI50 (A549): > 100 µM (inactive) | GI50 (NCI-H226): > 100 µM (inactive) | GI50 (COLO 205): 74 µM (inactive) | GI50 (RXF 393): > 100 µM (inactive) | GI50 (NCI/ADR-RES): > 100 µM (inactive) | GI50 (HOP-92): > 100 µM (inactive) | GI50 (SK-MEL-2): > 100 µM (inactive) | GI50 (NCI-H460): > 100 µM (inactive) | GI50 (HL-60): 58.3 µM (inactive) | GI50 (PC-3): > 100 µM (inactive) | GI50 (LOX IMVI): > 100 µM (inactive) | GI50 (HOP-62): > 100 µM (inactive) | GI50 (786-0): > 100 µM (inactive) | GI50 (MDA-N): 15.5 µM (inactive) | GI50 (SN12C): > 100 µM (inactive) | GI50 (HCC 2998): 50 µM (inactive) | GI50 (UACC-257): > 100 µM (inactive) | GI50 (HCT-116): > 100 µM (inactive) | GI50 (SNB-19): > 100 µM (inactive)

Cc1ccc(/C=C/C(=N/NC(=O)N/N=C(/C=C/c2ccc(C)cc2)C(C)(C)CN2CCCCC2)C(C)(C)CN2CCCCC2)cc1
GI50 (K562): 0.122 µM (active) | GI50 (SK-MEL-28): 1.73 µM (inactive) | GI50 (UACC-62): 2.3 µM (inactive) | GI50 (MCF7): 1.47 µM (inactive) | GI50 (T47D): 2.19 µM (inactive) | GI50 (SF-295): 1.71 µM (inactive) | GI50 (MOLT-4): 0.125 µM (active) | GI50 (SK-MEL-5): 1.67 µM (inactive) | GI50 (OVCAR-5): 2.16 µM (inactive) | GI50 (Hs-578T): 1.52 µM (inactive) | GI50 (OVCAR-8): 1.54 µM (inactive) | GI50 (CCRF-CEM): 1.3 µM (inactive) | GI50 (BT-549): 2.1 µM (inactive) | GI50 (OVCAR-3): 1.48 µM (inactive) | GI50 (SF-268): 1.81 µM (inactive) | GI50 (HCT-15): 1.57 µM | GI50 (MDA-MB-231): 1.79 µM (inactive) | GI50 (UO-31): 0.813 µM (active) | GI50 (TK-10): 1.74 µM (inactive) | GI50 (EKVX): 2.67 µM (inactive) | GI50 (DU-145): 3.48 µM (inactive) | GI50 (SR): 0.0787 µM (active) | GI50 (NCI-H23): 2.19 µM (inactive) | GI50 (IGROV-1): 1.98 µM (inactive) | GI50 (SNB-75): 1.46 µM (inactive) | GI50 (RPMI-8226): 0.258 µM (active) | GI50 (NCI-H522): 1.63 µM (inactive) | GI50 (Malme-3M): 1.67 µM (inactive) | GI50 (M14): 0.614 µM (active) | GI50 (HT-29): 0.757 µM (active) | GI50 (ACHN): 2 µM (inactive) | GI50 (U-251): 1.48 µM (inactive) | GI50 (SF-539): 1.77 µM (inactive) | GI50 (A498): 1.67 µM (inactive) | GI50 (SW-620): 1.79 µM (inactive) | GI50 (MDA-MB-435): 1.45 µM (inactive) | GI50 (OVCAR-4): 2.07 µM (inactive) | GI50 (SK-OV-3): 1.77 µM (inactive) | GI50 (CAKI-1): 2.31 µM (inactive) | GI50 (KM12): 1.64 µM (inactive) | GI50 (A549): 1.52 µM (inactive) | GI50 (NCI-H226): 1.82 µM (inactive) | GI50 (COLO 205): 1.53 µM (inactive) | GI50 (RXF 393): 1.28 µM (inactive) | GI50 (NCI/ADR-RES): 1.64 µM (inactive) | GI50 (HOP-92): 1.51 µM (inactive) | GI50 (SK-MEL-2): 1.94 µM (inactive) | GI50 (NCI-H460): 1.64 µM (inactive) | GI50 (HL-60): 1.63 µM (inactive) | GI50 (PC-3): 1.69 µM (inactive) | GI50 (LOX IMVI): 1.16 µM (inactive) | GI50 (HOP-62): 1.65 µM (inactive) | GI50 (786-0): 1.39 µM (inactive) | GI50 (MDA-N): 1.52 µM (inactive) | GI50 (SN12C): 1.61 µM (inactive) | GI50 (HCC 2998): 1.77 µM (inactive) | GI50 (UACC-257): 1.72 µM (inactive) | GI50 (HCT-116): 1.34 µM (inactive) | GI50 (SNB-19): 2.11 µM (inactive)
